From ChEMBL document CHEMBL1201862, “PubChem BioAssay data set” (2004) come the findings set out here.

What all share (assay): NCI anticancer screen, dose series, 48 h
Assay [1] relates to ACHN.
Assay [2] has as its system BT-549.
Assay [3] concerns COLO 205.
The subject of assay [4] is HCT-116.
Assay [5] has as its system Hs-578T.
Assay [6] concerns K562.
Assay [7] concerns KM12.
The subject of assay [8] is LOX IMVI.
Assay [9] deals with MCF7.
Assay [10] concerns MDA-MB-231.
Assay [11] concerns MDA-N.
The test system of assay [12] is Malme-3M.
The test system of assay [13] is NCI-H23.
The test system of assay [14] is OVCAR-3.
Assay [15] relates to SK-MEL-28.
In assay [16] the test system is SK-MEL-5.
Assay [17] concerns SNB-19.
Assay [18] has as its system SR.
Assay [19] concerns TK-10.
Assay [20] has as its system U-251.

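How tested: cells in 96-well plates exposed to compound for 48 hours at five concentrations. GI50: concentration for 50% inhibition of growth.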 Activity calls are given as the source filed them. No stated cut-off is given here; in the data, active = GI50 up to about 1.1 µM and inactive = higher.

For the molecule `CCCC(=O)Nc1ncnc2c1ncn2C1OC2COP(=O)(O)OC2C1OC(=O)CCC` (configuration not stated), the GI50 in assay [1] was > 100 µM (inactive); in assay [2], > 1000 µM (inactive); in [3] it was > 100 µM (inactive); in assay [4], > 100 µM (inactive); in assay [5], > 1000 µM (inactive); in assay [6] it was > 100 µM (inactive). Also, the GI50 in assay [7] is > 100 µM (inactive); in assay [8] it was > 100 µM (inactive); in assay [9], > 100 µM (inactive); in assay [10] it was 479 µM (inactive); in [11], > 100 µM (inactive); in assay [12] it was > 100 µM (inactive). For the same molecule, the GI50 in assay [13] was > 100 µM (inactive); in assay [14] it was > 100 µM (inactive); in assay [15], > 100 µM (inactive); in assay [16], > 100 µM (inactive); in assay [17] it was > 100 µM (inactive); in assay [18], 493 µM (inactive). The GI50 is > 1000 µM (inactive) in assay [19] and > 100 µM (inactive) in [20].

Consider `CC(=O)Nc1nc(O)c2nc(C=O)cnc2n1`, for which the GI50 in assay [1], in assay [2], in assay [3], in assay [4], in assay [5] and in assay [6] was > 100 µM (inactive) each time. Also, the GI50 in assay [7], in assay [8], in assay [9], in assay [10], in assay [11] and in [12] was > 100 µM (inactive) throughout. Also, the GI50 in assay [13], in assay [14], in [15], in [16], in [17] and in [18] was > 100 µM (inactive) in each case. The GI50 in assay [19] and in [20] was > 100 µM (inactive) throughout.

Turning to `O=C1C(Cl)=C(NCCF)C(=O)c2ncccc21`, the GI50 in assay [1] is 2.19 µM (inactive); in assay [2], 1.63 µM (inactive); in assay [4] it was 1.76 µM (inactive); in assay [5], 1.83 µM (inactive); in [6], 0.321 µM (active); in [7], 1.93 µM (inactive). Also, the GI50 was 0.724 µM (active) in assay [8]; 1.72 µM (inactive) in [9]; 1.9 µM (inactive) in assay [10]; 0.2 µM (active) in assay [11]; 1.57 µM (inactive) in assay [12]; 1.6 µM (inactive) in assay [13]. For the same molecule, the GI50 in assay [14] is 2.03 µM (inactive); in [15], 1.87 µM (inactive); in [16], 1 µM (active); in [17], 1.64 µM (inactive); in assay [18], 9.38 µM (inactive); in [19] it was 2.13 µM (inactive). Moreover, the GI50 in assay [20] was 1.46 µM (inactive).

For `Cc1cc(CCC(=O)NCCNc2c3ccccc3nc3ccccc23)cc(C)c1O[Si](C)(C)C(C)(C)C`, the GI50 in assay [1] was 1.66 µM (inactive); in assay [2], 1.72 µM (inactive); in assay [3] it was 1.03 µM (active); in assay [4], 0.363 µM (active); in [5], 2.01 µM (inactive); in [6], 0.276 µM (active). Further, the GI50 in [7] is 0.366 µM (active); in [8] it was 0.148 µM (active); in [9], 0.242 µM (active); in assay [10], 13.1 µM (inactive); in assay [11], 0.399 µM (active); in assay [12], 2.06 µM (inactive). The GI50 is 1.93 µM (inactive) in assay [13]; 1.96 µM (inactive) in assay [14]; 1.92 µM (inactive) in [15]; 1.85 µM (inactive) in assay [17]; 0.214 µM (active) in assay [18]; 1.63 µM (inactive) in [19]. In [20], the GI50 was 0.312 µM (active).

As for `O=C(CCCN1CCC2(CC1)CC(=O)N(N1CCCCCC1)C2=O)c1ccccc1`, the GI50 was > 100 µM (inactive) in assay [1]; > 100 µM (inactive) in [2]; > 100 µM (inactive) in [3]; > 100 µM (inactive) in [4]; > 100 µM (inactive) in assay [5]; 70.8 µM (inactive) in assay [6]. Moreover, the GI50 in assay [8], in assay [9], in [10], in assay [11], in assay [12] and in assay [13] was > 100 µM (inactive) in each case. The GI50 in [14] is > 100 µM (inactive); in assay [15], > 100 µM (inactive); in assay [16], > 100 µM (inactive); in assay [17] it was > 100 µM (inactive); in assay [18], 14.2 µM (inactive); in assay [19] it was > 100 µM (inactive). The GI50 in assay [20] was > 100 µM (inactive).

For the molecule `NC(=O)c1ccc(/N=N/O)nc1`, the GI50 in assay [1], in assay [2], in assay [3], in assay [4], in assay [5] and in assay [6] was > 100 µM (inactive) in each case. Further, the GI50 in [7] was > 100 µM (inactive); in assay [9], > 100 µM (inactive); in assay [10], > 100 µM (inactive); in assay [11], > 100 µM (inactive); in assay [12], 0.0755 µM (active); in [13] it was > 100 µM (inactive). Further, the GI50 in assay [14], in [15], in assay [16], in [17], in assay [18] and in assay [19] was > 100 µM (inactive) each time. The GI50 in assay [20] was > 100 µM (inactive).

Take `O=C1/C(=C/c2ccc(Cl)cc2)CCCc2ccccc21`: the GI50 in [1] is 16.9 µM (inactive); in assay [2], 20.3 µM (inactive); in [3] it was 20.6 µM (inactive); in assay [4], 13.6 µM (inactive); in assay [5], 11.7 µM (inactive); in assay [6], 3.24 µM (inactive). Besides, the GI50 in [7] was 15.2 µM (inactive); in assay [8], 17.3 µM (inactive); in assay [9], 17.2 µM (inactive); in assay [10], 19.6 µM (inactive); in assay [11], 17.1 µM (inactive); in assay [12], 13.6 µM (inactive). Moreover, the GI50 in assay [13] is 23.7 µM (inactive); in assay [14] it was 18.9 µM (inactive); in assay [15], 16.6 µM (inactive); in assay [17] it was 18.4 µM (inactive); in assay [18], 13.6 µM (inactive); in assay [19], 21.6 µM (inactive). Also, the GI50 in assay [20] was 14.2 µM (inactive).

For `O=C1Nc2ccc(Br)cc2/C1=N/NC(=S)Nc1ccc([N+](=O)[O-])cc1`, the GI50 is 5.19 µM (inactive) in [1]; 2.28 µM (inactive) in [2]; 21.7 µM (inactive) in assay [3]; 5.35 µM (inactive) in [4]; 14.2 µM (inactive) in assay [5]; 9.48 µM (inactive) in assay [6]. For the same molecule, the GI50 in [7] was 5.94 µM (inactive); in assay [8], 8.81 µM (inactive); in [9] it was 7.13 µM (inactive); in [10], 16.7 µM (inactive); in [11], 7.98 µM (inactive); in [12], 5.98 µM (inactive). Moreover, the GI50 in assay [13] was 2.55 µM (inactive); in assay [14], 6.65 µM (inactive); in [15], 11.1 µM (inactive); in assay [16] it was 7.74 µM (inactive); in assay [18] it was 5.05 µM (inactive); in assay [19], 14.5 µM (inactive). Moreover, the GI50 in assay [20] is 7.13 µM (inactive).

In the case of `Cc1ccc(S(=O)(=O)NC(=O)Nc2nc[nH]n2)cc1`, the GI50 in assay [1], in assay [2], in [3], in assay [4], in assay [5] and in [6] was > 100 µM (inactive) throughout. Moreover, the GI50 in assay [7], in [9], in assay [10], in assay [11], in [12] and in assay [13] was > 100 µM (inactive) in each case. The GI50 in assay [14], in assay [15], in assay [16], in assay [17], in assay [18] and in [19] was > 100 µM (inactive) throughout. In addition, in assay [20], the GI50 is > 100 µM (inactive).

In the case of `COC(=O)Nc1nc2ccccc2[nH]1` [CARBENDAZIM], the GI50 in assay [1] was > 56.1 µM (inactive); in assay [2], 10.1 µM (inactive); in [3] it was 5.05 µM (inactive); in assay [4] it was 4.21 µM (inactive); in assay [5], 12.9 µM (inactive); in assay [7] it was 4.26 µM (inactive). In addition, the GI50 in assay [8] was 8.73 µM (inactive); in assay [9] it was 5.07 µM (inactive); in assay [10] it was 27.8 µM (inactive); in assay [11] it was 2.98 µM (inactive); in assay [12] it was > 43.9 µM (inactive); in assay [13], 14.2 µM (inactive). Further, the GI50 in assay [14] is 4 µM (inactive); in assay [15], 16.2 µM (inactive); in assay [16], 6.03 µM (inactive); in [17], 10.1 µM (inactive); in assay [18], 7.33 µM (inactive); in assay [19] it was > 49.2 µM (inactive). Also, the GI50 in [20] was 4.86 µM (inactive).
